Biological target: T1, PLK4 (Homo sapiens, UniProt O00444)
T1 construct: expressed in transfected cells; host or cells: HEK293 T cells (ATCC CRL-3216)
T1 sequence (O00444 1-970): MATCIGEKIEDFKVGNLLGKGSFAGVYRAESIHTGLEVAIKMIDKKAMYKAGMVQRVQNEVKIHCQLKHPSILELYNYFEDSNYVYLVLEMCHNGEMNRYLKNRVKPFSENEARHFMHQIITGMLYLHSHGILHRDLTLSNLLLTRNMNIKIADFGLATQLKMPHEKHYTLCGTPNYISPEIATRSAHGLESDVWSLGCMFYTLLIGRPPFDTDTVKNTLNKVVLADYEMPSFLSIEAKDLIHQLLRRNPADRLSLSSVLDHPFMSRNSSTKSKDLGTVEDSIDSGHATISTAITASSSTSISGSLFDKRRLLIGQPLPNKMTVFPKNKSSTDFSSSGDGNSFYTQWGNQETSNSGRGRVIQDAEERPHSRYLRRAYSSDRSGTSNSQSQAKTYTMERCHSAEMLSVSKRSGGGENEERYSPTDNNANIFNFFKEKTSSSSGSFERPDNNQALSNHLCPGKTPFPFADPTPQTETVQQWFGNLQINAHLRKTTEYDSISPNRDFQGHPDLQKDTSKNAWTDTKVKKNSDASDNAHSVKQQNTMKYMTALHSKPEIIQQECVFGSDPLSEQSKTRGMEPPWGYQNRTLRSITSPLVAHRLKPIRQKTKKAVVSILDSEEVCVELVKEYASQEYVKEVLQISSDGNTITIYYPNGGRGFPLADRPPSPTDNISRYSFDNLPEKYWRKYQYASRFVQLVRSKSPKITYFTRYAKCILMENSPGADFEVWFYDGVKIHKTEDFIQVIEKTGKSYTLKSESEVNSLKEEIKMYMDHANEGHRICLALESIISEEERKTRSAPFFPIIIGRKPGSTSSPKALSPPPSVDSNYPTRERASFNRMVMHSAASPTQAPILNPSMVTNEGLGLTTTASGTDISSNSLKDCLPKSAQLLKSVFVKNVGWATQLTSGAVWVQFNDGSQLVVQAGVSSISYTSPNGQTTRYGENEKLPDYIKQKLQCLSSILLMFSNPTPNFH
Experiment: PLK4 NanoBRET target engagement assay
Format: binding
Settings: HEK293 T cells transfected with PLK4 NanoLuc fusion vector; K-5 tracer; 2 hrs incubation
How it was run: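 HEK293T cells transiently expressing PLK4-NanoLuc, plated at 17000 cells/well with K-5 tracer and compound, incubated 2 h at 37 °C/5% CO2. After substrate/inhibitor mix, 610/450 nm emission ratio ×1000 gave mBRET; IC50 from 4-parameter fit.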

Row | Compound | IC50
1 | Cc1cc(Nc2nc(N(C)c3c(F)cc(S(C)(=O)=O)cc3F)nc(-c3ccn(CCO)n3)c2C2CC2)n[nH]1 [Compound 169] | 0.004 µM
2 | Cc1cc(Nc2nc(N(C)c3c(F)cc(S(C)(=O)=O)cc3F)nc(-c3cn(C4COC4)nc3C)c2C2CC2)n[nH]1 [Compound 180] | 0.004 µM
3 | COc1c(Nc2cc(C)[nH]n2)nc(N(C)c2ccc(Oc3nccs3)cc2)nc1-c1cnn(C)c1 [Compound 69] | 0.7 µM
4 | COCCn1ncc(-c2nc(N(C)c3c(F)cc(S(C)(=O)=O)cc3F)nc(Nc3cc(C4CC4)[nH]n3)c2C2CC2)c1C [Compound 277] | 0.003 µM
5 | Cc1cc(Nc2nc(N(C)c3c(F)cc(S(C)(=O)=O)cc3F)nc(Nc3cc(C)[nH]n3)c2C2CC2)n[nH]1 [Compound 313] | 0.018 µM
6 | Cc1cc(Nc2nc(N(C)c3c(F)cc(S(C)(=O)=O)cc3F)nc(-c3cnn(CC(=O)N(C)C)c3)c2C2CC2)n[nH]1 [Compound 170] | 0.011 µM
7 | Cc1cc(Nc2nc(N(C)c3c(F)cc(S(C)(=O)=O)cc3F)nc(-c3cn(C4CCOCC4)nc3C)c2C2CC2)n[nH]1 [Compound 185] | 0.021 µM
8 | COCCN(c1nc(Nc2cc(C)[nH]n2)c(OC)c(-c2cnn(C)c2)n1)c1ccc(S(C)(=O)=O)cc1F [Compound 88] | 0.29 µM
9 | Cc1cc(Nc2nc(N(C)c3c(F)cc(S(C)(=O)=O)cc3F)nc(-c3cc(C(=O)N(C)C)n(C)n3)c2C2CC2)n[nH]1 [Compound 319] | 0.005 µM
10 | Cc1cc(Nc2nc(N(C)c3c(F)cc(S(C)(=O)=O)cc3F)nc(-c3cnn(C(F)F)c3)c2C2CC2)n[nH]1 [Compound 131] | 0.009 µM
11 | CNC(=O)c1c(-c2nc(N(C)c3c(F)cc(S(C)(=O)=O)cc3F)nc(Nc3cc(C)[nH]n3)c2C2CC2)cnn1C [Compound 261] | 0.008 µM
12 | Cc1cc(Nc2nc(N(C)c3c(F)cc(S(C)(=O)=O)cc3F)nc(Nc3cnn(C)c3)c2C2CC2)n[nH]1 [Compound 334] | 0.037 µM
13 | Cc1cc(Nc2nc(N(C)c3c(F)cc(S(C)(=O)=O)cc3F)nc(-c3cnn(C)n3)c2C2CC2)n[nH]1 [Compound 104] | 0.015 µM
14 | Cc1cc(Nc2nc(N(C)c3c(F)cc(S(C)(=O)=O)cc3F)nc(-c3cn(CCO)cn3)c2C2CC2)n[nH]1 [Compound 225] | 0.089 µM
15 | Cc1cc(Nc2nc(N(C)c3c(F)cc(S(C)(=O)=O)cc3F)nc(-c3cn(C4CC4)c(C)n3)c2C2CC2)n[nH]1 [Compound 241] | 0.004 µM
16 | Cc1cc(Nc2nc(N(C)c3c(F)cc(C(C)(C)O)cc3F)nc(-c3cn(C)cn3)c2C2CC2)n[nH]1 [Compound 262] | 0.018 µM

Other lines, results leading:

Row | IC50 | Compound
17 | 0.61 µM | Cc1cc(Nc2nc(N(C)c3c(F)cc(S(C)(=O)=O)cc3F)nc(-c3cn(CCS(C)(=O)=O)c(C)n3)c2C2CC2)n[nH]1 [Compound 192]
18 | 0.18 µM | Cc1cc(Nc2nc(N(C)c3ccc(S(C)(=O)=O)cc3F)nc(-c3cnnn3C)c2C2CC2)n[nH]1 [Compound 43]
19 | 0.029 µM | Cc1cc(Nc2nc(N(C)c3c(F)cc(S(C)(=O)=O)cc3F)nc(-c3cnn(C)c3N)c2C2CC2)n[nH]1 [Compound 181]
20 | 0.014 µM | Cc1cc(Nc2nc(N(C)c3c(F)cc(S(C)(=O)=O)cc3F)nc(N3CCc4c(ncn4C)C3)c2C2CC2)n[nH]1 [Compound 269]
21 | 0.06 µM | Cc1cc(Nc2nc(N(C)c3c(F)cc(S(C)(=O)=O)cc3F)nc(N3Cc4cnn(C)c4C3)c2C2CC2)n[nH]1 [Compound 271]
22 | 0.006 µM | CN(c1nc(Nc2cc(C3CC3)[nH]n2)c(C2CC2)c(-c2cn(C)c(C#N)n2)n1)c1c(F)cc(S(C)(=O)=O)cc1F [Compound 287, 4-(5-cyclopropyl-6-((5-cyclopropyl-1H-pyrazol-3-yl)amino)-2-((2,6-difluoro-4-(methylsulfonyl)phenyl)(methyl)amino)pyrimidin-4-yl)-1-methyl-1H-imidazole-2-carbonitrile]
23 | 0.018 µM | Cc1cc(Nc2nc(N(C)c3c(F)cc(S(C)(=O)=O)cc3F)nc(-c3ccncn3)c2C2CC2)n[nH]1 [Compound 135]
24 | 0.011 µM | Cc1cc(Nc2nc(N(C)c3c(F)cc(S(C)(=O)=O)cc3F)nc(-c3cc(C(N)=O)n(C)n3)c2C2CC2)n[nH]1 [Compound 321]

Source: US20250177396A1, “POLO-LIKE KINASE 4 (PLK4) INHIBITORS, PHARMACEUTICAL COMPOSITIONS, METHODS OF PREPARATION AND USES THEREOF” (Repare Therapeutics Inc., priority 2022, published 2025)
